Experimental data: ChEMBL document CHEMBL1159000, “Anti-AIDS agents, 4. Tripterifordin, a novel anti-HIV principle from Tripterygium wilfordii: isolation and structural elucidation” (J Nat Prod, 1992)
≈ marks a conversion by molar mass, not a printed value.

Key:
[1] = tested on: Human immunodeficiency virus 1; assay: Antiviral activity against HIV1 3B replication in human H9 cells after 1 hr by p24 antigen capture assay; type: functional, organism-based; conditions: Human immunodeficiency virus 1, 3B, H9, 1 h
H9 = assay: Inhibition human H9 cell growth assessed as cell density at 15 uM after 3 days by cell count assay; type: cell-based; conditions: h9, 72 h

- EC50 [1]: 1 µg/mL (≈ 3.14 µM)
Compound: C[C@@]1(O)C[C@@]23CC[C@H]4[C@@]5(CCC[C@]4(C)C(=O)OC5)[C@@H]2CC[C@H]1C3 [TRIPTERIFORDIN]
- Activity (H9): Non-toxic
